US20060182775A1, “Insect repellent” (priority 2005, published 2006)

Tests used:
[1] = cited from earlier work
[2] = human, in vivo

| Compound | absorption through the skin ([1]; in vivo) | effect on the nervous system ([1]; in vivo) | seizures and death ([1]; some individuals) | burning and/or irritation of skin [2] |
| --- | --- | --- | --- | --- |
| CCN(CC)C(=O)c1cccc(C)c1 [DEET, n,n-diethyl-m-toluamide] | readily absorbed through the skin and enters into the blood stream | adversely affect the nervous system | caused seizures and even death in some individuals |  |
| citronella oil |  |  |  | caused burning and/or irritation |
